Results reported in patent US4372975A, “Substituted 2-benzoyl-4-chloroglycinanilide derivatives, a process for their production, and their use as medicaments” (Pierre Fabre SA, priority 1977, dated 1983).
Structures can show the parent of a compound that is named as a salt. Where two headings read alike, the source gives them in different places.

Legend:
male Swiss mice = assay: Rota-Rod test; format: in vivo; details: falls off rod in less than 2 minutes
Experimental: This test is carried out on male Swiss mice. The mouse is placed on a 3 cm diameter wooden rod rotating at 5 revolutions per minute. The mice which succeed in remaining on the rod for at least 3 minutes in successive tests are selected and gathered into groups of 10 for the test of each dose. If the mouse falls off the rod in less than 2 minutes, the tested compound is considered to be effective. The results are expressed by the effective dose DE50 according to N. W. Dunham and T. S. Miva--J. amer. pharm. Ass., 1957, 46, 208.

[1] = tested on: pentamethylene tetrazole-induced tonic spasms; assay: Anti-pentamethylene tetrazole activity; format: in vivo, male mice of the Swiss strain; details: Mus musculus, male Swiss mice
Experimental: This test is carried out on a group of 10 male mice of the Swiss strain. 15 minutes after the subcutaneous injection of 125 mg/kg of pentamethylene tetrazole, the mice have tonic spasms of which the outcome is fatal.
For the test, the compound is administered orally 60 minutes before the injection of pentamethylene tetrazole. The animals are observed for 2 hours after administration of the pentamethylene tetrazole. In some particular cases, the tests were confirmed by intraperitoneal administration. The results are expressed by the effective dose DE50 (Goodman et Col.--J. Pharmacol. 108, 1953).
As Japanese Pat. No. 148,340 has been cited in copending application Ser. No. 916,651, filed June 19, 1978, comparisons between compounds of this closest prior art and the compounds of the invention were undertaken in the form of a controlled study.
The major consideration surrounded the similarity in the compounds, particularly in the substitution at the R position. The study compared ten compounds of the invention, which differed from the Japanese prior art only in that the compounds of the invention are alkylated at the R position while the prior art compounds are all hydrogenated at that position.
The compounds were tested for anti-pentamethylene tetrazole activity, the test described on p.

[2] = Toxicity test (LD50, Miller and Tainter); details: mouse, in vivo, mice
Experimental: The compounds according to the invention were subjected to toxicity tests. It was tested in batches of 10 mice by oral, intraperitoneal and, in some cases, intravenous administration and was calculated in accordance with Miller and Tainter's method (Proc. Soc. exper. Biol. Med., 1944, 57, 261).

Solubility = format: physicochemical
[3] = ip, intraperitoneal, 125 mg/kg s.c. pentamethylene tetrazole, read-out: anti-pentamethylene tetrazole activity DE50 I.P.
[4] = oral, 60 min before 125 mg/kg s.c. pentamethylene tetrazole, read-out: anti-pentamethylene tetrazole activity DE50 P.O.
[5] = ip, intraperitoneal, read-out: DL50 I.P.
[6] = intravenous, read-out: DL50 I.V.

| Compound | Rota Rod DE50 V.O. (male Swiss mice) | ED50 [1, 3] | ED50 [1, 4] | LD50 [2, 5] | LD50 [2, 6] | LD50 ([2]; oral, read-out: DL50 oral) | solubility (Solubility; in water) | solubility in dimethyl formamide (Solubility; in dimethyl formamide) | solubility in ethanol (Solubility; in ethanol at 95° GL) | solubility in water (in words) (Solubility; in water) |
| --- | --- | --- | --- | --- | --- | --- | --- | --- | --- | --- |
| CN(C(=O)CN1CCOCC1)c1ccc(Cl)cc1C(=O)c1ccccc1 [Example 18, N-Methyl-2-morpholino-(2'-benzoyl-4'-chloro)-acetanilide hydrochloride] | 60 | 1.4 mg/kg | 3.3 mg/kg | 750 mg/kg | 103 mg/kg | 1700 mg/kg | 100 mg/mL |  |  |  |
| C=C(C)CNCC(=O)N(C)c1ccc(Cl)cc1C(=O)c1ccccc1 [Example 19, N-Methyl-N'-(2'-methylallyl)-(2-benzoyl-4-chloro)-glycinanilide hydrochloride] | 21 | 1.1 mg/kg | 1.7 mg/kg | 500 mg/kg | 60 mg/kg | 1500 mg/kg | 50 mg/mL |  |  |  |
| CN(C(=O)CNC1CCCCC1)c1ccc(Cl)cc1C(=O)c1ccccc1 [Example 11, N-Methyl-N'-cyclohexyl-(2-benzoyl-4-chloro)-glycinanilide hydrochloride] | 27 | 1.25 mg/kg | 1.35 mg/kg | 305 mg/kg | 50 mg/kg | 1050 mg/kg |  | 1% | 3% | insoluble |
